This is an account of results in US12410171B2, “Tropomyosin receptor kinase (TRK) degradation compounds and methods of use” (Cullgen (Shanghai), Inc., priority 2020, dated 2025).

SMILES strings stand for the structures. Like-named read-outs stand apart in the source and are kept apart here. A value given as a limit tells only on which side of the number the result lay.

For this assay, the target named is T1, TPM3-TRKA fusion protein (Homo sapiens, UniProt P04629).
T1 construct: The resulted chimeric proteins always retain the kinase domain of TRK proteins; TPM3 (fusion partner, N-terminal part of tropomyosin alpha-3, P06753); endogenous in cells; host or cells: KM12 colon cancer cells; the other entry of the earlier key: TPM3 (P06753, Tropomyosin alpha-3 chain)
T1 sequence (P04629 with tags, fused parts or gaps): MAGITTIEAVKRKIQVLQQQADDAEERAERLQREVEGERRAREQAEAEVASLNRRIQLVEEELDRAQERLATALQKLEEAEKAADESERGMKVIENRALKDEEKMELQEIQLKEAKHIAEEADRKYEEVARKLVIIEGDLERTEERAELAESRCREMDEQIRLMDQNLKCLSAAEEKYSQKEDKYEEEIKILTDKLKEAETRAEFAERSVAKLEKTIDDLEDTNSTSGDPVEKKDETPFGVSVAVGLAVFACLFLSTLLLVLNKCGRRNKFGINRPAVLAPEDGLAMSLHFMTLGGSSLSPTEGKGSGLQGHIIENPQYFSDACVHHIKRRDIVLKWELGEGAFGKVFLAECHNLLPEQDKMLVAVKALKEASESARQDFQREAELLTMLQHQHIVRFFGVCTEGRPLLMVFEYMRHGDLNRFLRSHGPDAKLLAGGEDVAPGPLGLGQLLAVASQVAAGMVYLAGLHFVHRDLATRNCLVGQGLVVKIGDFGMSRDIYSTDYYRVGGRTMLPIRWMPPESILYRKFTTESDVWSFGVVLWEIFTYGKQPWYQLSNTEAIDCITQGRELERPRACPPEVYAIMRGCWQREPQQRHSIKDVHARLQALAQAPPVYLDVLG
Briefly: TPM3-TRKA fusion protein levels in KM12 cells (Western blot). It counts as cell-based. The settings on record: read-out: Degradation (at 10 nM). The gist of the method:
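KM12 colon cancer cells were treated with DMSO or compounds at 0.1–100 nM, 0.4–30 nM or other stated concentrations for 4, 8–16 or 16 h. RIPA lysates were BCA-normalized and resolved by SDS-PAGE. TPM3-TRKA was detected by chemiluminescent Western blot, with bands quantified by densitometry.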

Setting [1] is: 16 h, TPM3-TRKA degradation in KM12 cells at 10 nM compound, category of percentage degradation.

Turning to `O=C(CN1CCN(c2ccc(C(=O)Nc3n[nH]c4ccc(Cc5cc(F)cc(F)c5)cc34)c(NC3CCOCC3)c2)CC1)NCCOCCOCCNc1ccc2c(c1)C(=O)N(C1CCC(=O)NC1=O)C2=O` (stereo not drawn) [TR-162, N-(5-(3,5-Difluorobenzyl)-1H-indazol-3-yl)-4-(4-(2-((2-(2-(2-((2-(2,6-dioxopiperidin-3-yl)-1,3-dioxoisoindolin-5-yl)amino)ethoxy)ethoxy)ethyl)amino)-2-oxocthyl)piperazin-1-yl)-2-((tetrahydro-2H-pyran-4-yl)amino)benzamide], the percent degradation of TPM3-TRKA protein at 0.01 µM under setting [1] is more than 80%.
Consider `O=C(CN1CCN(c2ccc(C(=O)Nc3n[nH]c4ccc(Cc5cc(F)cc(F)c5)cc34)c(NC3CCOCC3)c2)CC1)NCCOCCOCCOCCNc1ccc2c(c1)C(=O)N(C1CCC(=O)NC1=O)C2=O` (stereo not drawn) [TR-163, N—(S-(3,5-Difluorobenzyl)-1H-indazol-3-yl)-4-(4-(14-((2-(2,6-dioxopiperidin-3-yl)-1,3-dioxoisoindolin-5-yl)amino)-2-oxo-6,9,12-trioxa-3-azatetradecyl)piperazin-1-yl)-2˜ ((tetrahydro-2H-pyran-4-yl)amino)benzamide], for which, under setting [1], the percent degradation of TPM3-TRKA protein at 0.01 µM was more than 80%.
On the same count and under the same terms, as for `O=C(CN1CCN(c2ccc(C(=O)Nc3n[nH]c4ccc(Cc5cc(F)cc(F)c5)cc34)c(NC3CCOCC3)c2)CC1)NCCCCCNc1ccc2c(c1)C(=O)N(C1CCC(=O)NC1=O)C2=O` (stereo not drawn) [TR-164, N-(5-(3,5-Difluorobenzyl)-1H-indazol-3-yl)-4-(4-(2-((5-((2-(2,6-dioxopiperidin-3-yl)-1,3-dioxoisoindolin-5-yl)amino)pentyl)amino)-2-oxoethyl)piperazin-1-yl)-2-((tetrahydro-2H-pyran-4-yl)amino)benzamide], the figure is more than 80%; as for `O=C(CN1CCN(c2ccc(C(=O)Nc3n[nH]c4ccc(Cc5cc(F)cc(F)c5)cc34)c(NC3CCOCC3)c2)CC1)NCCNc1ccc2c(c1)C(=O)N(C1CCC(=O)NC1=O)C2=O` (stereo not drawn) [TR-165, N-(5-(3,5-Difluorobenzyl)-1H-indazol-3-yl)-4-(4-(2-((2-((2-(2,6-dioxopiperidin-3-yl)-1,3-dioxoisoindolin-5-yl)amino)ethyl)amino)-2-oxoethyl)piperazin-1-yl)-2-((tetrahydro-2H-pyran-4-yl)amino)benzamide], more than 80%.
Still for that read-out and setting: the same measure for `O=C(CN1CCN(c2ccc(C(=O)Nc3n[nH]c4ccc(Cc5cc(F)cc(F)c5)cc34)c(NC3CCOCC3)c2)CC1)NCCOCCOCCOCCOCCOCCNc1ccc2c(c1)C(=O)N(C1CCC(=O)NC1=O)C2=O` (stereo not drawn) [TR-166, N-(5-(3,5-Difluorobenzyl)-1H-indazol-3-yl)-4-(4-(20-((2-(2,6-dioxopiperidin-3-yl)-1,3-dioxoisoindolin-5-yl)amino)-2-oxo-6,9,12,15,18-pentaoxa-3-azaicosyl)piperazin-1-yl)-2-((tetrahydro-28-pyran-4-yl)amino)benzamide]: more than 80%.
Same read-out and setting: the same measure for `O=C(CN1CCN(c2ccc(C(=O)Nc3n[nH]c4ccc(Cc5cc(F)cc(F)c5)cc34)c(NC3CCOCC3)c2)CC1)NCCCNc1ccc2c(c1)C(=O)N(C1CCC(=O)NC1=O)C2=O` (stereo not drawn) [TR-167, N-(5-(3,5-Difluorobenzyl)-1H-indazol-3-yl)-4-(4-(2-((3-((2-(2,6-dioxopiperidin-3-yl)-1,3-dioxoisoindolin-5-yl)amino)propyl)amino)-2-oxocthyl)piperazin-1-yl)-2-((tetrahydro-2H-pyran-4-yl)amino)benzamide]: more than 80%; for `O=C1CCC(N2C(=O)c3ccc(NCCCC(=O)N4CCN(c5cccc(-c6cnc7ccc(N8CCC[C@@H]8c8cccc(F)c8)nn67)n5)CC4)cc3C2=O)C(=O)N1` (stereo partly drawn) [TR-168, 2-(2,6-Dioxopiperidin-3-yl)-5-((4-(4-(6-(6-((R)-2-(3-fluorophenyl)pyrrolidin-1-yl)imidazo[1,2-b]pyridazin-3-yl)pyridin-2-yl)piperazin-1-yl)-4-oxobutyl)amino) isoindoline-1,3-dione]: more than 80%; for `O=C1CCC(N2C(=O)c3ccc(NCCCC(=O)N4CCN(c5ccc(C(=O)Nc6n[nH]c7ccc(Cc8cc(F)cc(F)c8)cc67)c(NC6CCOCC6)c5)CC4)cc3C2=O)C(=O)N1` (stereo not drawn) [TR-169, N-(5-(3,5-Difluorobenzyl)-1H-indazol-3-yl)-4-(4-(4-((2-(2,6-dioxopiperidin-3-yl)-1,3-dioxoisoindolin-S-yl)amino)butanoyl)piperazin-1-yl)-2-((tetrahydro-2/-pyran-4-yl)amino)benzamide]: more than 80%.
`O=C1CCC(N2C(=O)c3ccc(NCCCN4CCN(c5cccc(-c6cnc7ccc(N8CCC[C@@H]8c8cccc(F)c8)nn67)n5)CC4)cc3C2=O)C(=O)N1` (stereo partly drawn) [TR-171, 2˜ (2,6-Dioxopiperidin-3-yl)-5-((3-(4-(6-(6-((R)-2-(3-fluorophenyl)pyrrolidin-1-yl)imidazo[1,2-b]pyridazin-3-yl)pyridin-2-yl)piperazin-1-yl)propyl)amino) isoindoline-1,3-dione]: the percent degradation of TPM3-TRKA protein at 0.01 µM under setting [1] was more than 80%.
Regarding `O=C1CCC(N2C(=O)c3ccc(CCCN4CCN(c5cccc(-c6cnc7ccc(N8CCC[C@@H]8c8cccc(F)c8)nn67)n5)CC4)cc3C2=O)C(=O)N1` (stereo partly drawn) [TR-172, 2-(2,6-dioxopiperidin-3-yl)-5-(3-(4-(6-(6-((R)-2˜ (3-fluorophenyl)pyrrolidin-1-yl)imidazo[1,2-b]pyridazin-3-yl)pyridin-2-yl)piperazin-1-yl)propyl)isoindoline-1,3-dione], the percent degradation of TPM3-TRKA protein at 0.01 µM (KM12, 16 h) was more than 80%.
Same read-out and setting: the same measure for `O=C1CCC(N2C(=O)c3ccc(OCCN4CCN(c5cccc(-c6cnc7ccc(N8CCC[C@@H]8c8cccc(F)c8)nn67)n5)CC4)cc3C2=O)C(=O)N1` (stereo partly drawn) [TR-173, 2˜ (2,6-dioxopiperidin-3-yl)-5-(2-(4-(6-(6-((R)-2-(3-fluorophenyl)pyrrolidin-1-yl)imidazo[1,2-b]pyridazin-3-yl)pyridin-2-yl)piperazin-1-yl)ethoxy) isoindoline-1,3-dione]: more than 80%.
In the case of `O=C1CCC(N2C(=O)c3ccc(NCCOCCN4CCN(c5cccc(-c6cnc7ccc(N8CCC[C@@H]8c8cccc(F)c8)nn67)n5)CC4)cc3C2=O)C(=O)N1` (stereo partly drawn) [TR-176, 2-(2,6-Dioxopiperidin-3-yl)-5-((2-(2-(4-(6-(6-((R)-2-(3-fluorophenyl)pyrrolidin-1-yl)imidazo[1,2-b]pyridazin-3-yl)pyridin-2-yl)piperazin-1-yl)ethoxy)ethyl)amino) isoindoline-1,3-dione], under setting [1], the percent degradation of TPM3-TRKA protein at 0.01 µM was more than 80%.
The same measure, in the same setting: the same measure for `O=C1CCC(N2C(=O)c3ccc(NCCOCCOCCN4CCN(c5cccc(-c6cnc7ccc(N8CCC[C@H]8c8cccc(F)c8)nn67)n5)CC4)cc3C2=O)C(=O)N1` (stereo partly drawn) [TR-177, 2-(2,6-Dioxopiperidin-3-yl)-5-((2-(2-(2-(4-(6-(6-((S)-2-(3-fluorophenyl)pyrrolidin-1-yl)imidazo[1,2-b]pyridazin-3-yl)pyridin-2-yl)piperazin-1-yl)ethoxy)ethoxy)ethyl)amino) isoindoline-1,3-dione]: more than 80%.
On to `O=C1CCC(N2C(=O)c3ccc(N4CCC(N5CCN(c6cccc(-c7cnc8ccc(N9CCC[C@@H]9c9cccc(F)c9)nn78)n6)CC5)CC4)cc3C2=O)C(=O)N1` (stereo partly drawn) [TR-182, 2-(2,6-dioxopiperidin-3-yl)-5-(4-(4-(6-(6-((R)-2-(3-fluorophenyl)pyrrolidin-1-yl)imidazo[1,2-b]pyridazin-3-yl)pyridin-2-yl)piperazin-1-yl)piperidin-1-yl)isoindoline-1,3-dione], for which the percent degradation of TPM3-TRKA protein at 0.01 µM (KM12, 16 h) is more than 80%.
In the case of `O=C1CCC(N2C(=O)c3ccc(N4CC(N5CCN(c6cccc(-c7cnc8ccc(N9CCC[C@@H]9c9cccc(F)c9)nn78)n6)CC5)C4)cc3C2=O)C(=O)N1` (stereo partly drawn) [TR-184, 2-(2,6-dioxopiperidin-3-yl)-5-(3-(4-(6-(6-((R)-2-(3-fluorophenyl)pyrrolidin-1-yl)imidazo[1,2-b]pyridazin-3-yl)pyridin-2-yl)piperazin-1-yl)azetidin-1-yl)isoindoline-1,3-dione], the percent degradation of TPM3-TRKA protein at 0.01 µM (KM12, 16 h) was more than 80%.
Regarding `O=C1CCC(N2Cc3cc(CCCN4CCN(c5cccc(-c6cnc7ccc(N8CCC[C@@H]8c8cccc(F)c8)nn67)n5)CC4)ccc3C2=O)C(=O)N1` (stereo partly drawn) [TR-186, 3-(5-(3-(4-(6-(6-((R)-2-(3-fluorophenyl)pyrrolidin-1-yl)imidazo[1,2-b]pyridazin-3-yl)pyridin-2-yl)piperazin-1-yl)propyl)-1-oxoisoindolin-2-yl)piperidine-2,6-dione], under setting [1], the percent degradation of TPM3-TRKA protein at 0.01 µM was more than 80%.
In the case of `O=C1CCC(N2Cc3cc(C#CCN4CCN(c5cccc(-c6cnc7ccc(N8CCC[C@@H]8c8cccc(F)c8)nn67)n5)CC4)ccc3C2=O)C(=O)N1` (stereo partly drawn) [TR-188, 3-(5-(3-(4-(6-(6-((R)-2-(3-Fluorophenyl)pyrrolidin-1-yl)imidazo[1,2-b]pyridazin-3-yl)pyridin-2-yl)piperazin-1-yl)prop-1-yn-1-yl)-1-oxoisoindolin-2-yl)piperidine-2,6-dione], under setting [1], the percent degradation of TPM3-TRKA protein at 0.01 µM was more than 80%.
For the compound `O=C1CCC(N2Cc3ccc(NCC(=O)N4CCN(c5cccc(-c6cnc7ccc(N8CCC[C@@H]8c8cccc(F)c8)nn67)n5)CC4)cc3C2=O)C(=O)N1` (stereo partly drawn) [TR-189, 3-(6-((2-(4-(6-(6-((R)-2-(3-fluorophenyl)pyrrolidin-1-yl)imidazo[1,2-b]pyridazin-3-yl)pyridin-2-yl)piperazin-1-yl)-2-oxoethyl)amino)-1-oxoisoindolin-2-yl)piperidine-2,6-dione], the percent degradation of TPM3-TRKA protein at 0.01 µM under setting [1] was more than 80%.
